“And” between values parts separate entries of the source, which are not always exact repeats. Identical values can stand only once. “Also recorded” adds a separate entry of the source. Like-named read-outs stand apart in the source and are kept apart here.
What was measured:
Human Androgen Receptor = Human Androgen Receptor (Homo sapiens (Human), UniProt P10275); assay: Androgen receptor assay: [3H]R1881 displacement, cytosol of HEK-293 cells transfected with hAR (hydroxylapatite assay); assay type: binding; details: for Human Androgen Receptor Binding RBA (%) R1881 = 100: relative binding affinity; for times more binding to the human androgen receptor than the corresponding hydantoin: thiohydantoin versus hydantoin (EM-9052 vs EM-9150; EM-7105 vs EM-7333); for affinity for the androgen receptor (in words): SAR discussion; for times more potent than bicalutamide to displace R1881 from the human AR: versus bicalutamide
Rat Androgen Receptor = Rat Androgen Receptor (Rattus norvegicus (Rat), UniProt P15207); assay: Androgen receptor assay: [3H]R1881 displacement, rat prostate cytosol; assay type: binding; details: for times more potent than OH-flutamide in the rat AR assay: versus OH-flutamide; for times more potent than bicalutamide in the rat AR assay: versus bicalutamide
Description: On the morning of the binding assay, ventral prostates collected from 24 h-gonadectomized rats were homogenized in buffer A (1 g of tissue in 5 mL) and the homogenate was centrifuged as described above.
Androgen binding is measured using the hydroxylapatite (HAP) assay. In brief, the radioactive steroid [^3H]R1881 solubilized in ethanol is diluted with buffer B (10 mM Tris-HCl, 1.5 mM EDTA disodium salt, 10 mM α-monothioglycerol, pH 7.4). Aliquots of the cell or prostate cytosol preparation (0.1 ml) are then incubated with 5 nM [^3H]R1881 (0.1 ml, ˜100 000 cpm) in the presence or absence of the indicated concentrations of unlabeled compounds (0.1 ml, prepared in buffer B containing 30% ethanol) for 16-18 h at 0-4° C. Triamcinolone acetonide (TAC; 100 nM) is added to mask progesterone receptors. Unbound steroids are separated by incubation for 40 min at 0-4° C. with 0.3 ml HAP prepared in buffer P (50 mM Tris-HCl, 10 mM KH2PO4, pH 7.4). After incubation with HAP and 10 min of centrifugation at 1000×g, the pellet is washed 3 times with 1 ml of buffer P. Thereafter, the radioactivity is extracted from the pellet by incubation at room temperature for 60 min with 1 ml of ethanol. After centrifugation, the supernatant is decanted into a scintillation vial and the pellet is extracted again with ethanol. After the addition of scintillation liquid, the radioactivity is measured in a liquid scintillation counter.
Relative binding affinity (RBA) was calculated by the following formula: RBA (%) [IC50(R1881)/IC50 (compound)]×100 B—In Vitro Assay of Androgenic/Antiandrogenic Activity

[1] = test system: PSA levels in human prostatic carcinoma LNCaP cells; assay: Prostate specific antigen (PSA) in LNCaP cells with or without R1881; assay type: cell-based; details: for LNCaP Cells Antiandrogenic activity (PSA) % inhibition at 10^−7M: R1881-stimulated, 10^−7M of compound; for inhibition at 0.1 µM: Homo sapiens, read-out: LNCaP Cells Antiandrogenic activity (PSA) % inhibition at 10^−7M, R1881-stimulated, 10^−7M of compound; for inhibition at 0.1 µM / times more potent than bicalutamide in blocking R1881-stimulated PSA secretion: LNCaP; for times more potent than bicalutamide in blocking R1881-stimulated PSA secretion: versus bicalutamide; for stimulation at 10^−7M of basal PSA levels in LNCaP cells (in words): basal (no R1881)
Description: LNCaP cells were cultured as previously described (Qi et al. 2001). In brief, the LNCaP cells were cultured for 6 days in 1.0 ml RPMI 1640 supplemented with hormone-depleted 0.25% FCS before each experiment. At the start of the experiment, half of the medium (0.5 ml) was replaced with 0.5 ml of identical medium containing the appropriate concentrations of tested compounds, in the presence or absence of 1.0 nM of R1881. After 72 h of incubation of LNCaP cells with compounds, 0.5 ml of culture medium was removed for PSA determination. PSA levels were measured using the PSA [^125I] IRMA KIT (REF: RK-10CT) from Izotop (Institute of Isotopes Ltd, Budapest, Hungary).

[2] = test system: Shionogi mouse mammary carcinoma cells; assay: In vitro androgenic/antiandrogenic activity: proliferation of Shionogi cells with or without DHT; assay type: cell-based; details: for stimulation at 10^−7M on basal Shionogi cell proliferation (in words): basal (no DHT)
[3] = test system: castrated (CX) immature male rats; assay: Systemic androgenic (agonistic) activity in orchidectomized (CX) immature male rats; assay type: in vivo, rat; details: for CX Agonistic activity % Stimulation Bulbo / CX Agonistic activity % Stimulation SV / CX Agonistic activity % Stimulation Prostate: 0.1 mg/rat/po, 7 days; for CX Agonistic activity % Stimulation Bulbo: bulbocavernosus muscles weight; for CX Agonistic activity % Stimulation SV: seminal vesicles weight; for CX Agonistic activity % Stimulation Prostate: ventral prostate weight; for agonistic activity on ventral prostate weight (in words): daily oral dosing for 7 days, immature castrated rat
Androgen Receptor = assay: Overall classification (antiandrogen / SARM) in the models studied
[4] = Oral absorption, Experiment 2: plasma, intraprostatic and intramuscular concentrations after 0.5 mg EM-9150/animal in castrated male rats; assay type: in vivo; details: Sprague-Dawley, rat, 0.5 mg/animal; for concentration at 7 h: po
Description: Castrated male Sprague-Dawley rats (Crl:CD(SD)Br) weighing 275-375 g were used for pharmacokinetic studies. Animals were fasted (access to water only) from around 16 h00 the afternoon prior to the dosing day.
Blood samples (˜0.5 mL/timepoint) were collected by jugular venipuncture on animals under isoflurane anesthesia at 1, 2, 3, 4, 7 and 24 h post-dosing. Blood samples were put into tubes containing EDTA(K3) as anticoagulant and centrifuged at 4° C. for 10 min at 1700-2400 g. The resulting plasma was frozen on dry ice and kept at −80° C. pending analysis. […] Prostates and bulbocavernosus muscles were frozen in liquid nitrogen and kept at −80° C. until being used. A buffer and an ethanol-acetone solution were added to the tissue and homogenized with a Polytron. The supernatant was collected, evaporated to dryness and reconstituted in buffer.
Intraprostatic and intramuscular concentrations of the compounds were also determined by LC-MS/MS.

[5] = relative binding affinity, R1881 = 100, prostate cytosol
[6] = DHT (0.3 nM)-stimulated cell number, read-out: Shionogi Antiandrogenic Activity IC50
[7] = Mus musculus, read-out: Shionogi Antiandrogenic Activity IC50, DHT (0.3 nM)-stimulated cell number
[8] = bulbocavernosus muscles, read-out: intramuscular concentration
[9] = plasma, read-out: plasma concentration
[10] = ventral prostate, read-out: intraprostatic concentration

Rat Androgen Receptor, sequence (P15207 whole entry, looked up): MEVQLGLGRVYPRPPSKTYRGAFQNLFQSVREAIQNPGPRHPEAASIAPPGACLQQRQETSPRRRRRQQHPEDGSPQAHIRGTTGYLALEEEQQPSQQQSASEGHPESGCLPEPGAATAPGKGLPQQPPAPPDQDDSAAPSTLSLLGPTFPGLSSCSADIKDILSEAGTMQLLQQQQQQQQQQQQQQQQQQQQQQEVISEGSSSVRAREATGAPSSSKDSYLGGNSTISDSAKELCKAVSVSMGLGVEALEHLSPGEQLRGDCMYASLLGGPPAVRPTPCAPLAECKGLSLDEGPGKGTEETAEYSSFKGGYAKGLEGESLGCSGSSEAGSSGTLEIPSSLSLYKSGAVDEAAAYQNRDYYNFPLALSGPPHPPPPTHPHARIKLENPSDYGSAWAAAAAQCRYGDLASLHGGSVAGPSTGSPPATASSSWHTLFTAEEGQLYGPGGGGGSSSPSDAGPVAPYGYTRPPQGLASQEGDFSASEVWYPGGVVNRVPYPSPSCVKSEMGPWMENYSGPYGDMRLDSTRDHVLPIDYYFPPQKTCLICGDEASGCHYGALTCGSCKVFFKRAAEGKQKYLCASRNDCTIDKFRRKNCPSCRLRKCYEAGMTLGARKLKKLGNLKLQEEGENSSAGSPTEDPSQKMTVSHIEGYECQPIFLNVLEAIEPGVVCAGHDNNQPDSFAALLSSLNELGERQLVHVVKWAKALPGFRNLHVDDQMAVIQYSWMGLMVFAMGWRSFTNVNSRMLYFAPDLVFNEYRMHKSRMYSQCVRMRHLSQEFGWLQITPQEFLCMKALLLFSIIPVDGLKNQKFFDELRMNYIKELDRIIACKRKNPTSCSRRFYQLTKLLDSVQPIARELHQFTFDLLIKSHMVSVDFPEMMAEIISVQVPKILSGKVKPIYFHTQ
Human Androgen Receptor, sequence (P10275 whole entry): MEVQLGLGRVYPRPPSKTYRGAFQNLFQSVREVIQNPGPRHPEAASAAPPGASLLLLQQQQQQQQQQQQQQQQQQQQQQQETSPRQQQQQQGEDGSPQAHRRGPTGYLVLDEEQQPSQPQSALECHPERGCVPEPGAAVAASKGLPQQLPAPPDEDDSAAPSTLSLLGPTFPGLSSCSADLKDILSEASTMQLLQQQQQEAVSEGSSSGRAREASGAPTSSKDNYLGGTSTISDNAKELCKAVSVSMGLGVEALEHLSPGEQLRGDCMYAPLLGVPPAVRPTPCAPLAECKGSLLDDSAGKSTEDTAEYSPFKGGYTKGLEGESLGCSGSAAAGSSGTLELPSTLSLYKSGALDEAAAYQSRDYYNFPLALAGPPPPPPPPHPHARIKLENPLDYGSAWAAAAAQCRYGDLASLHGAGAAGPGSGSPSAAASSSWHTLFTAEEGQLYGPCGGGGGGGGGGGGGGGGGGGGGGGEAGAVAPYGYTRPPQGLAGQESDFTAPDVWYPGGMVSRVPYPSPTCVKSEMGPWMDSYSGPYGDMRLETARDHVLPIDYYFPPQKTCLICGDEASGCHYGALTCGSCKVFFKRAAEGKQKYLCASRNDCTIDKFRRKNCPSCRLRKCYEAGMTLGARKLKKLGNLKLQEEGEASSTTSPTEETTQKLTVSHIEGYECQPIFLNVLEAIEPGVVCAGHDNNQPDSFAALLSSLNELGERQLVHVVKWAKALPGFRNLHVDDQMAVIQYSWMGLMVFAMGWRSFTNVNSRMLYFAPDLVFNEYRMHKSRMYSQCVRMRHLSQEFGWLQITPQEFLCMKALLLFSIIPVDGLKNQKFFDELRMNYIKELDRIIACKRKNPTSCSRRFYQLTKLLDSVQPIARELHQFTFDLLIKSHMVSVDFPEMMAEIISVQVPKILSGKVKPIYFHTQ

| Compound | Human Androgen Receptor Binding RBA (%) R1881 = 100 (Human Androgen Receptor; […]) | CX Agonistic activity % Stimulation Bulbo [3] | CX Agonistic activity % Stimulation SV [3] | CX Agonistic activity % Stimulation Prostate [3] | classification as antiandrogen or SARM (in words) (Androgen Receptor) | IC50 [2, 7] [nM] | other results |
| --- | --- | --- | --- | --- | --- | --- | --- |
| CC(C)NCc1ccc(OCCCN2C(=S)N(c3ccc(C#N)c(C(F)(F)F)c3)C(=O)C2(C)C)cc1 [EM-7105, reference compound] |  |  |  |  |  |  | Human Androgen Receptor Binding RBA (%) R1881 = 100 (Human Androgen Receptor; transfected cells): 41% and 41 ± 30%; times more binding to the human androgen receptor than the corresponding hydantoin (Human Androgen Receptor): around 140 times; Rat Androgen Receptor Binding RBA (%) R1881 = 100 (Rat Androgen Receptor; [5]): 3.9%; LNCaP Cells Antiandrogenic activity (PSA) % inhibition at 10^−7M [1]: 26%; IC50 [2, 6]: 9.4 nM |
| CCNCc1ccc(OCCCN2C(=S)N(c3ccc(C#N)c(C(F)(F)F)c3)C(=O)C2(C)C)cc1 [EM-7148, reference compound] |  |  |  |  |  |  | Human Androgen Receptor Binding RBA (%) R1881 = 100 (Human Androgen Receptor; transfected cells): 11% and 11 ± 1%; LNCaP Cells Antiandrogenic activity (PSA) % inhibition at 10^−7M [1]: 33%; IC50 [2, 6]: 9.2 nM |
| Cc1c(N2C(=O)C(C)(C)N(CCCOc3ccc(-c4ccncc4)cc3)C2=S)ccc(C#N)c1C(F)(F)F [EM-8691] | 525 ± 362 (n = 3) % | 163% | 24% | 39% | potent SARM | > 100 | affinity for the androgen receptor (in words) (Human Androgen Receptor): high affinity |
| Cc1c(N2C(=O)C(C)(C)N(CCCOc3ccc(-c4ccncc4)c(C(F)(F)F)c3)C2=S)ccc(C#N)c1C(F)(F)F [EM-8821] |  | 74% | 22% | 22% | weaker SARM | 11.5 | affinity for the androgen receptor (in words) (Human Androgen Receptor): decreased affinity; Human Androgen Receptor Binding RBA (%) R1881 = 100 (Human Androgen Receptor; transfected cells): 28.3% |
| CC1(C)C(=O)N(c2ccc(C#N)c(Cl)c2)C(=S)N1CCCOc1ccc(-c2ccncc2)cc1Cl [EM-9052] |  |  |  |  |  | 61 | times more binding to the human androgen receptor than the corresponding hydantoin (Human Androgen Receptor): 27 times; inhibition at 0.1 µM [1]: 26% |
| CC1(C)C(=O)N(c2ccc(C#N)c(Cl)c2)C(=O)N1CCCOc1ccc(-c2ccncc2)cc1 [EM-9116] | 9.2 ± 1.9 (n = 5) % |  |  |  | better antiandrogens | 17 ± 5 | affinity for the androgen receptor (in words) (Human Androgen Receptor): higher affinity |
| CC1(C)C(=O)N(c2ccc(C#N)c(Cl)c2)C(=O)N1CCCOc1ccc(-c2ccncc2)cc1Cl [EM-9150] |  | 1% | 0% | 0% | antiandrogens |  | times more potent than bicalutamide to displace R1881 from the human AR (Human Androgen Receptor): 247 times; Rat Androgen Receptor Binding RBA (%) R1881 = 100 (Rat Androgen Receptor; [5]): 6.5%; times more potent than OH-flutamide in the rat AR assay (Rat Androgen Receptor): 65 times; times more potent than bicalutamide in the rat AR assay (Rat Androgen Receptor): 32 times; agonistic activity on ventral prostate weight (in words) [3]: no agonistic activity; inhibition at 0.1 µM [1]: 57%; times more potent than bicalutamide in blocking R1881-stimulated PSA secretion [1]: 11.0 times and 10 times; stimulation at 10^−7M of basal PSA levels in LNCaP cells (in words) [1]: absence of stimulation; also recorded: no stimulation; times more inhibition of PSA levels in human LNCaP cells compared to the thiohydantoins ([1]; versus thiohydantoins of WO 2006/133567): ≥ 2 times; concentration at 7 h [4, 8]: 1.2 ng/g; concentration at 7 h [4, 9]: 0.9 ng/mL; Kp at 7 h ([4]; prostate / plasma, oral, read-out: concentration in the rat prostate versus plasma): ~3; concentration at 7 h [4, 10]: 2.9 ng/g; stimulation at 10^−7M on basal Shionogi cell proliferation (in words) [2]: absence of stimulation |
| CC1(C)C(=O)N(c2ccc(C#N)c(Cl)c2)C(=O)N1CCCOc1ccc(-c2cc[n+]([O-])cc2)cc1Cl [EM-9156] |  | 5% | 0% | 1% | antiandrogens |  | times more potent than bicalutamide to displace R1881 from the human AR (Human Androgen Receptor): 57 times; Rat Androgen Receptor Binding RBA (%) R1881 = 100 (Rat Androgen Receptor): 5.3%; times more potent than OH-flutamide in the rat AR assay (Rat Androgen Receptor): 53 times; times more potent than bicalutamide in the rat AR assay (Rat Androgen Receptor): 27 times; agonistic activity on ventral prostate weight (in words) [3]: no agonistic activity; inhibition at 0.1 µM [1]: ~50%; times more potent than bicalutamide in blocking R1881-stimulated PSA secretion [1]: 9.2 times and 10 times; stimulation at 10^−7M of basal PSA levels in LNCaP cells (in words) [1]: absence of stimulation; concentration at 7 h [4, 8]: 12.7 ng/g; concentration at 7 h [4, 9]: 22.3 ng/mL; concentration at 7 h [4, 10]: 19.3 ng/g; stimulation at 10^−7M on basal Shionogi cell proliferation (in words) [2]: absence of stimulation |
| Cc1c(N2C(=O)N(CCCOc3ccc(-c4cc[n+]([O-])cc4)cc3Cl)C(C)(C)C2=O)ccc(C#N)c1Cl [EM-9252] | 96.3% | 105 ± 9 (n = 2) % | 29 ± 5 (n = 2) % | 46 ± 5 (n = 2) % | selective androgen receptor modulators | > 100 |  |
| Cc1c(N2C(=O)NC(C)(C)C2=O)ccc(C#N)c1Cl [EM-9289] | 1.0% | 138 ± 15 (n = 2) % | 38 ± 5 (n = 2) % | 50 ± 6 (n = 2) % | selective androgen receptor modulators | ~1000 |  |
| Cc1c(N2C(=O)N(CCCOc3ccc(-c4cc[n+]([O-])cc4)cc3C(F)(F)F)C(C)(C)C2=O)ccc(C#N)c1Cl [EM-9319] | 9.6% | 110 ± 10 (n = 2) % | 17 ± 10 (n = 2) % | 39 ± 2 (n = 2) % |  | 97.8 |  |
| Cc1c(N2C(=O)N(CCCOc3ccc(-c4ccncc4)c(C(F)(F)F)c3)C(C)(C)C2=O)ccc(C#N)c1Cl [EM-9333] | 64.1% | 93 ± 23 (n = 2) % | 19 ± 5 (n = 2) % | 38 ± 2 (n = 2) % |  | 73 |  |
| Cc1c(N2C(=O)N(CCCOc3ccc(-c4cc[n+]([O-])cc4)c(C(F)(F)F)c3)C(C)(C)C2=O)ccc(C#N)c1Cl [EM-9334] | 17.8% | 86% | 17% | 30% |  | 28.9 |  |

Source: patent publication US9682960B2 (priority 2013, dated 2017)
